Compound in experiment [1]: C1=CC2=C(C=C(C(=C2N=C1)O)N=NC3=CC4=C(C=C3)C=C(C=C4)S(=O)(=O)O)S(=O)(=O)O + CC1(C)CCC(c2ccc(Cl)cc2)=C(CN2CCN(c3ccc(C(=O)NS(=O)(=O)c4ccc(N[C@H](CCN5CCOCC5)CSc5ccccc5)c(S(=O)(=O)C(F)(F)F)c4)cc3)CC2)C1 [Navitoclax] (partner 0.5 µM)
Nature of the experiment: relative viability (nuclei count vs DMSO), 5 days (fraction); higher = more cells survive. The procedure, abridged:
(§1)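 Lung cancer cell lines, seeded in 1536-well plates, were treated the following day by pin tool with a single drug or with five library-drug doses (not always all listed) in √10 steps on top of a fixed anchor-drug dose. Cells were fixed and nuclei stained in one step after 5 days, and nuclei were counted. Relative viability is the nuclei count for treated wells divided by that for vehicle wells, reported as medians of duplicate plates.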

Compound in experiment [2]: O=C(NC1CCNCC1)c1n[nH]cc1NC(=O)c1c(Cl)cccc1Cl [AT-7519] + COc1cc2c(Oc3ccc(NC(=O)C4(C(=O)Nc5ccc(F)cc5)CC4)cc3F)ccnc2cc1OCCCN1CCOCC1 [Foretinib] (partner 0.25 µM)
Described as above. Summed up:
as §1

For EBC-1, the relative viability in experiment [1] (first compound 0.08 µM) stood at 0.394; in experiment [1] (first compound 0.253 µM), 0.474; in experiment [1] (first compound 0.8 µM) it was 0.415; in experiment [1] (first compound 2.53 µM), 0.452; in experiment [1] (first compound 8 µM), 0.371; in experiment [2] (first compound 0.01 µM), 0.101. The results for the relative viability in experiment [2] (first compound 0.03162 µM), in experiment [2] (first compound 0.3162 µM) and in experiment [2] (first compound 1 µM) were 0.106, 0.0999 and 0.0905, respectively.

These data come from the supplement of paper PMC10307832.
